Measurements from patent publication US20160022168A1, “BRAIN STATE DEPENDENT THERAPY FOR IMPROVED NEURAL TRAINING AND REHABILITATION” (UNIVERSITY OF LETHBRIDGE, priority 2014, published 2016).

How the values were obtained:
[1] = tested on: primary somatosensory cortex (S1); test: Population recordings in primary somatosensory cortex (S1) before, during and after tactile stimulation in urethane-anesthetised rats; assay type: in vivo, Long Evans rats; settings: for firing rate reactivation (explained variance) during the stimulation period: 1 sec intervals of spontaneous activity, FIG. 4C; for Euclidian distance between firing rate correlation matrices, evoked vs following spontaneous compared with evoked vs preceding spontaneous: FIG. 4B, paired t-test; for mean corr. coef. change of latency correlation (spontaneous vs evoked) after tactile stimulation: latency from cross-correlogram with MUA, FIG. 2E; for mean corr. coef. change of latency correlation (spontaneous vs evoked) after tactile stimulation / mean corr. coef. change of latency correlation from pairwise correlograms: mean ± SEM; for mean corr. coef. change of latency correlation from pairwise correlograms: pair-wise cross-correlograms, FIG. 2E white bars; for latency correlation after vs before stimulation (averaged values): t-test
Protocol: (§1) Rats were then placed in a stereotaxic frame, and a window in the skull was prepared over primary somatosensory cortex (S1) hindlimb area (AP −1 mm; ML 2 mm; DV 1.5 mm) For auditory experiments, 8 Long Evans rats (250-350 g) were anesthetised with urethane (1.5 g/kg IP) and placed in a nasal restraint that left the ears free. A window in the skull (2×3 mm) was prepared over the primary auditory cortex. For all recordings, Applicant used silicon probes consisting of eight shanks (200 μm shank separation); each shank had 4 recording sites in a tetrode configuration (20 μm separation between sites, 160 μm^2 site area; 1-3 MOhm impedance; NeuroNexus Technologies).
The time course of the experimental protocol is illustrated in FIG. 1A and FIG. 1B. […] Each recording period consisted of 10 min of spontaneous activity, followed by 20 minutes of tactile stimulation, and then another 10 min of spontaneous activity. The tactile stimulation consisted of 600 repetitions of 1 second stimulation at 20 Hz followed by 1 second without stimulation. The tactile stimulator consisted of a plastic rod attached at one end to a membrane of a speaker controlled by a computer. The other end of the rod was placed in contact with left hind limb.
In order to quantify temporal relations among neurons, Applicant calculated the mean spike latency as described previously. Briefly, for each neuron, latency is defined as the center of mass of a cross-correlogram of that neuron with the summed activity of all other simultaneously recorded cells (MUA), within a time window of 100 ms (FIG. 2A). Before calculating the center of mass, cross-correlograms were smoothed with a Gaussian kernel with SD=5 ms and normalized between 0 and 1 to discard effects of baseline activity. Thus this measure estimates the time when the corresponding neuron is most likely to fire with respect to the population activity. In addition to analysis of cross-correlograms between single neurons and multiunit activity as described above, Applicant also calculated latency from pair-wise cross-correlograms to look at temporal relations between neurons in more detail (FIG. 2E white bars).
Extracellular signals were high-pass filtered (0.1 Hz) and amplified (1,000 times) using a 64-channel amplifier (Neuralynx). Signals were then digitized at 32 kHz. Units were identified and isolated by a semiautomatic cluster cutting algorithm (available at: klustakwik.sourceforge.net), followed by manual clustering (MClust).
To ensure that our results are not affected by differences in firing rates among animals, Applicant down sampled the multi-unit activity of all animals to match the number of spikes in the sample with the lowest firing rate. […]
For this analysis Applicant only included neurons with a firing rate above 0.6 Hz.

auditory cortex = test: Population recordings in auditory cortex (A1) before, during and after tone stimulation in urethane-anesthetised rats; assay type: in vivo, Long Evans rats; settings: for brain state in auditory cortex: urethane-anesthetised rats, carbachol infused into posterior hypothalamic nucleus, amphetamine 1 mg/kg IP, MK801 0.1 mg/kg i.p.
Protocol: as §1
To ensure that our results are not affected by differences in firing rates among animals, Applicant down sampled the multi-unit activity of all animals to match the number of spikes in the sample with the lowest firing rate.

Molecule	firing rate reactivation (explained variance) during the stimulation period ([1]; S1)	Euclidian distance between firing rate correlation matrices, evoked vs following spontaneous compared with evoked vs preceding spontaneous ([1]; S1)	mean slope of latency correlation after stimulation ceased ([1]; S1, after stimulation FIG. 2G, ± SD)	mean slope of latency correlation, pre-stimulus spontaneous periods ([1]; S1, first three points FIG. 2G, ± SD)	mean corr. coef. change of latency correlation (spontaneous vs evoked) after tactile stimulation ([1]; S1)	mean corr. coef. change of latency correlation from pairwise correlograms ([1]; S1)	latency correlation after vs before stimulation (averaged values) ([1]; S1)	mean slope of latency correlation during stimulation ([1]; S1, three points during stimulation FIG. 2G, ± SD)	duration of desynchronized state after injection ([1]; urethane-anesthetised rats, amphetamine 1 mg/kg)	brain state in auditory cortex (auditory cortex)	replay activity (reverberation of stimulus-evoked patterns) (auditory cortex; after NMDA receptor antagonist application)	brain state (cortical activity, LFP and unit activity) in S1 ([1]; urethane 1.5 g/kg IP, amphetamine 1 mg/kg injected in addition)
d-Methamphetamine HCl	significant firing rate reactivation	smaller	−0.07±0.08	−0.01±0.1	0.31±0.062	0.098±0.023	significantly higher after stimulation	0.11±0.12	at least 30 minutes	–	–	–
C[N+](C)(C)CCOC(N)=O [carbachol]	–	–	–	–	–	–	–	–	–	desynchronization of the brain state	–	–
C[C@]12N[C@H](Cc3ccccc31)c1ccccc12 [MK801]	–	–	–	–	–	–	–	–	–	–	suppressed	–
CCOC(N)=O [urethane]	significant firing rate reactivation	non-significant increase in similarity	–	–	−0.03±0.06	0.049±0.025	not significantly different	–	–	synchronized brain state	–	synchronized state
